Source: US11045473B2, “Compositions and methods for therapy of prostate cancer using drug combinations to target polyamine biosynthesis and related pathways” (Health Research, Inc., priority 2015, dated 2021)
Entries after “also recorded” stand apart in the source; their conditions may differ.

What was measured:
Assay type in all cases: cell-based, human
SAT1 [1] = assay: SAT1 mRNA and protein expression in LNCaP cells treated with BENSpm; details: BENSpm 0.1 to 10 μM
Protocol: (§1) FIG. 11 depicts a Western blot showing AMD1, ODC1, SAT1 and B-actin protein expression in wild type LNCaP cells pretreated with +/−DHT for 24 hours followed by BENSpm for 96 hours.
(§2) We next analyzed whether the metabolic stress in CaP cells caused by high biosynthetic flux to maintain polyamine pools can be enhanced by increasing the activity of SAT1. We tested whether this could cause increased secretion of acetylated polyamines, putting intracellular pools in deficit, which should necessitate more biosynthesis, and should therefore potentiate any benefit of inhibiting the MSP. To conduct this analysis we used LNCaP cells that stably overexpress SAT1 in a Tet-off system (LNG53 cells, described in Kee, K., et al. J Biol Chem 279, 27050-27058 (2004)).

SAT1 [2] = assay: SAT1 activity in response to BENSpm treatment
Excerpt: as §2

ODC1 = assay: Western blot of ODC1 in LNCaP cells treated with BENSpm; details: BENSpm for 96 hours
Protocol: as §1, §2

AMD1 = assay: Western blot of AMD1 in LNCaP cells treated with BENSpm; details: BENSpm for 96 hours
Protocol: as §1, §2

LNCaP = assay: Proliferation of wild type LNCaP, BENSpm 24 h pre-treatment then 96 hr MTDIA
Protocol: (§3) Tet was removed 24 hours prior to 96 hr treatment with MTDIA. […] Cells were pre-treated with BENSpm for 24 hours followed by 96 hr treatment with MTDIA.
as §2

DU145 = assay: Proliferation of DU145, BENSpm 24 h pre-treatment then 96 hr MTDIA; details: AR negative DU145, 2.5 μM BENSpm
Protocol: as §3, §2

MTAP [3] = assay: Western blot of MTAP protein expression in FaDu; details: 10 and 20 uM MTA for 4 days
Protocol: (§4) FIG. 9. (A) Proliferation curves for LNCaP, DU145 and PC3 treated with MTDIA in the absence or presence of 10 or 20 uM MTA, for 4 and (B) 8 days. […] (C) Western blot analysis of FaDu, LNCaP, and DU145 cells after indicated treatments of MTA (0, 10, or 20 uM) or the respective 4 day IC25 and IC50 dose of MTDIA for each cell line plus or minus MTA immunoblotted with antibodies against MTAP, SMS, and SRM, with B-actin as a loading control. Western blot images are representative of biological triplicates.
(§5) Western Blotting—Whole cell extracts were prepared in RIPA buffer (150 mM NaCl, 1.0% NP-40, 0.5% deoxycholate, 0.1% SDS, 50 mM Tris-HCl pH 8.0, 5 mM EDTA and 0.5 mM PMSF) supplemented with 1× proteinase inhibitor. Protein concentrations were determined by Bradford Assay (Thermo Scientific, Cat #1856209). […] MTAP for Westerns was purchased from Proteintech™ (Cat #11475-1-AP. SRM and SMS were purchased from Abcam® (Cat #ab111884 and ab156879). B-actin antibody for Westerns was purchased from Sigma-Aldrich (Cat #A5441) and GAPDH was from Santa Cruz Biotecnology Inc. (Cat #sc-25778). Films were scanned using the Biorad ChemiDoc XRS, and band intensities were calculated using Image Lab™. Intensity values were normalized to B-actin loading control band intensities and made relative to control treatment conditions.

MTAP [4] = assay: Western blot of MTAP protein expression in LNCaP; details: MTA treatment
Protocol: as §4, §5

MTAP [5] = assay: Western blot of MTAP protein expression in DU145; details: DU145, 10 and 20 uM MTA for 4 days
Protocol: as §4, §5

| Structure (SMILES) | SAT1 mRNA (SAT1 [1]) | SAT1 protein (SAT1 [1]) | SAT1 activity, dose dependent increase (SAT1 [2]; (+) dihydrotestosterone (DHT) conditions) | SAT1 activity, dose dependent increase (SAT1 [2]; (−) DHT conditions) | effect on ODC1 (ODC1) | effect on AMD1 (AMD1) | sensitivity to MTDIA (LNCaP; 2.5 μM BENSpm) | effect on proliferation (LNCaP; 2.5 μM BENSpm alone) | sensitivity to MTDIA (DU145) | MTAP protein expression (MTAP [3]) | MTAP levels (MTAP [4]) | MTAP protein expression (MTAP [5]) |
| --- | --- | --- | --- | --- | --- | --- | --- | --- | --- | --- | --- | --- |
| CCNCCCNCCCNCCCNCC [BENSpm, N(1),N(11)-bisethylnorspermine] | increased | increased | 17-40 fold | 6-20 fold | minimal effects | minimal effects | more sensitive to MTDIA; also recorded: greatly increased sensitivity to MTDIA | no effect on proliferation | more sensitive to MTDIA; also recorded: strongly increased sensitivity to MTDIA | – | – | – |
| CSC[C@H]1O[C@@H](n2cnc3c(N)ncnc32)[C@H](O)[C@@H]1O [MTA] | – | – | – | – | – | – | – | – | – | slightly decreased | unchanged | slightly increased |
